According to patent publication US20140296968A1, “IMPLANTABLE VASCULAR STENT” (Translumina GmbH, priority 2011, published 2014):

Assay: release of rapamycin in vivo

- duration of the release of rapamycin: 4 to 6 weeks
SMILES: CO[C@H]1C[C@@H]2CC[C@@H](C)[C@@](O)(O2)C(=O)C(=O)N2CCCC[C@H]2C(=O)O[C@H]([C@H](C)C[C@@H]2CC[C@@H](O)[C@H](OC)C2)CC(=O)[C@H](C)/C=C(\C)[C@@H](O)[C@@H](OC)C(=O)[C@H](C)C[C@H](C)/C=C/C=C/C=C/1C [rapamycin]
